Measured values as given in patent US5101059A, “Amino acid protecting groups” (Research Corporation Technologies, Inc., priority 1989, dated 1992).

Columns and labels:
Format in all cases: physicochemical
[1] = Solubility of TMS-Fmoc and dichloro-Xmoc derivatives versus Fmoc analogs
Experimental: This latter property is particularly important when peptide synthesis is carried out in solution.

[2] = General statements on cleavage by piperidine or fluoride ion
[3] = Base deblocking and stability of 9-xanthenylmethyl and 9,10-dihydro-9-anthracenylmethyl derivatives; settings: room temperature; for time for evidence for initiation of the deblocking: piperidine 100 eq.; for time for evidence for initiation of the deblocking / time needed to complete the deblocking: DMF; for time needed to complete the deblocking: DBU 100 eq.
Experimental: 1. Deblocking of Xmoc-PCA in 1,5,9-Triazabicyclo[4,4,0]dec-5-ene Solution: To a solution of 7.90 mg (0.0216 mmol) of Xmoc-PCA in 0.6 mL of pyridine was added 0.15 g (1.078 mmol 50 eq.) of 1,5,9-triazabicyclo[4,4,0]dec-5-ene (TBD). The mixture was stirred at room temperature and monitored by TLC with an eluant consisting of Skelly B--EtOAc (3:1). Complete deblocking had occurred after 25 minutes.
2. Base Deblocking of 9-Xanthenylmethyl Phenylacetate: a. In Piperdine Solution: To a solution of 13.39 mg of 9-XM-phenylacetate in 1.6 mL of DMF was added 0.4 mL (100 eq.) of piperidine. The mixture was stirred at room temperature. […] In DBU Solution: To a solution of 6.36 mg of 9-XM-phenylacetate in 0.9 mL of DMF was added 0.3 mL of 1,8-diazabicyclo[5,4,0]-undec-7-ene (DBU) (100 eq.). The mixture was stirred at room temperature. […] In TBD Solution: To a solution of 7.91 mg of 9-XM-phenylacetate in 0.3 mL of pyridine was added 100 mg (30 eq.) of 1,5,9-triazabicyclo[4,4,0]dec-5-ene. The mixture was stirred at room temperature.
1. General Procedure for Studying the Stabilities of DHAmoc-PCA, Xmoc-PCA, and DC-Xmoc-PCA in Piperidine Solution To a solution of urethane (0.0294 mmol) in 1.2 mL of DMF was added 0.3 mL (2.94 mmol, 100 eq.) of piperidine. The mixture was stirred at room temperature and monitored by TLC with an eluant consisting of Skelly B--EtOAc (3:1). Evidence for initiation of the deblocking required 2 minutes for DC-Xmoc-PCA, 3.5 hours for Xmoc-PCA, and 7 hours for DHAmoc-PCA.
2. General Procedure for Studying the Deblocking of Xmoc-PCA and DHAmoc-PCA in DBU Solution: To a solution of urethane (0.0324 mmol) in 0.5 mL of DMF was added 0.5 mL (3.24 mmol, 100 eq.) of 1,8-diazabicyclo[5,4,0]undec-7-ene. The mixture was stirred at room temperature and monitored by TLC with the eluant consisting of Skelly B--EtOAc (3:1). The time needed to complete the deblocking was 3.5 hours for Xmoc-PCA, and 6 hours for DHAmoc-PCA.

[4] = Deblocking of R-Fmoc-aniline by trifluoroacetic acid; settings: room temperature
Description: 1. General Procedure for Studying the stability of R-Fmoc-analine (R=TMS, DMPS, DPMS, DT-TMS, TIPS) in Trifluoroacetic Acid: To a solution of urethane (0.026 mmol) in […].) of trifluoroacetic acid. The mixture was stirred at room temperature and the course of the reaction was monitored by TLC with an eluant consisting of Skelly B--dichloromethane (1:1) to note the time needed for complete deblocking of the urethanes.

[5] = Deblocking of R-Fmoc-aniline by fluoride ion; settings: tetra-n-butylammonium chloride 3.0 eq., KF dihydrate 4.1 eq., acetonitrile, room temperature
Experimental: 3. General Procedure for Studying the Deblocking of Urethanes R-Fmoc-aniline (R=TMS, DMPS, DPMS, TIPS, DT-TMS) by Reaction with Fluoride Ion: To a solution of urethane (0.0513 mmol) in 0.7 mL of acetonitrile was added 45 mg (0.154 mmol, 3.0 eq.) of tetra-n-butyl-ammonium chloride and 20 mg (0.213 mmol, 4.1 eq.) of potassium fluoride dihydrate. The mixture was stirred at room temperature, the reaction being monitored by TLC with an eluant consisting of Skelly B--CH2 Cl2 (1:1).

[6] = Base deblocking of R-Fmoc-aniline by various amines; settings: for Time for Complete Deblocking / Time for Complete Scavenging of Dibenzofulvene: room temperature
Experimental: 2. General Procedure for Studying the Base Deblocking of the Urethanes R-Fmoc-aniline (R=TMS, DMPS, DPMS, DT-TMS, TIPS): A solution of urethane (0.05 mmol) in a sample of redistilled base (5 mmol, 100 eq.) was allowed to stand at room temperature. The reaction was monitored periodically by TLC with an eluant consisting of Skelly B--CH2 Cl2 (1:1). No reaction occurred according to the TLC test for urethanes having R=TIPS in the case of any of the bases tested after 24 hours.

[7] = Base deblocking of substituted urethanes (U-PCA) by various amines; settings: dichloromethane, room temperature
Description: 1. General Procedure for Studying the Base Deblocking of the Urethanes Fmoc-PCA, BTS-Fmoc-PCA, DT-Fmoc-PCA, and TMS-Fmoc-PCA: A mixture of urethane (0.05 mmol) in a solution prepared from an equal volume of base (2.5 mmol, 50 eq.) and dichloromethane was stirred at room temperature. The course of the reaction was monitored by TLC with an eluant consisting of Skelly B--ether (3:1).

[8] = Base deblocking of FM-Fmoc-PCA; settings: room temperature
Experimental: A. Base Deblocking of FM-Fmoc-PCA: 1. In Piperidine Solution: To a solution of 24.96 mg of FM-Fmoc-PCA in 0.5 mL of DMF was added 0.5 mL (100 eq.) of piperidine. The mixture was stirred at room temperature. […] 2. In DBN Solution: To a solution of 12.81 mg of FM-Fmoc-PCA in 0.15 mL of DMF was added 0.15 mL (50 eq.) of 1,5-diazabicyclo[4,3,0]nonene-7 (DBN). The mixture was stirred at room temperature. […] 3. In DBU Solution: To a solution of 10.58 mg of FM-Fmoc-PCA in 0.15 mL of DMF was added 0.15 mL (50 eq.) of 1,8-diazabicyclo[5,4,0]undec-7-ene (DBU). The mixture was stirred at room temperature. […] 4. In TBD: To a solution of 18.95 mg of FM-Fmoc-PCA in 0.2 mL of DMF and 0.2 mL of pyridine was added 100 mg (20 eq.) of 1,5,9-triazabicyclo[4,4,0]dec-5-ene (TBD). The mixture was stirred at room temperature.

[9] = morpholine 50 eq., significant aminodibenzofulvene type adduct formed
[10] = piperidine 50 eq., significant aminodibenzofulvene type adduct formed

Q: Which “solubility compared with Fmoc derivatives” value [1] does the source give for `O=C(Nc1ccc(Cl)cc1)OCC1c2cc(Cl)ccc2Oc2ccc(Cl)cc21` [2,7-dichloro analog of Xmoc] here?
A: greater solubility than Fmoc derivatives

Q: What about the “deblocking by / stability to piperidine” value [2] of the same molecule?
A: deblocked by piperidine as easily as the Fmoc group

Q: Which “time for evidence for initiation of the deblocking” value [3] does the source give for `O=C(Nc1ccc(Cl)cc1)OCC1c2cc(Cl)ccc2Oc2ccc(Cl)cc21` [DC-Xmoc-PCA, 2,7-Dichloro-9-xanthenylmethyl p-Chlorocarbanilate] here?
A: 0.033 h

Q: What does the source list for `O=C(Nc1ccc(Cl)cc1)OCC1c2ccccc2Cc2ccccc21` [DHAmoc-PCA, 3,10-Dihydro-9-anthracenylmethyl p-Chlorocarbanilate]?
A: time needed to complete the deblocking [3]: 6 h; time for evidence for initiation of the deblocking [3]: 7 h

Q: With `C[Si](C)(c1ccccc1)C1(COC(=O)Nc2ccccc2)c2ccccc2-c2ccccc21` [DMPS, 9-Dimethyl(phenyl)silyl-9-fluorenylmethyl Carbanilate] as the molecule, how does the “Time for Complete Deblocking by Trifluoroacetic Acid” value (shortened to “Time … by Trifluoroacetic Acid”) [4] read?
A: 8 h

Q: What about the “Time for Complete Deblocking by Fluoride Ion” value (“Time … by Fluoride Ion” for short) [5] of the same molecule?
A: < 2 min

Q: What about the “Time for Complete Deblocking” value ([6]; morpholine 100 eq.) of the same molecule?
A: 0.783 h

Q: What about the “Time for Complete Scavenging of Dibenzofulvene” value ([6]; morpholine 100 eq.) of the same molecule?
A: 60 min

Q: What about the “Time for Complete Deblocking” value ([6]; piperidine 100 eq.) of the same molecule?
A: 0.667 h

Q: And the “Time for Complete Scavenging of Dibenzofulvene” value ([6]; piperidine 100 eq.)?
A: 220 min

Q: What about the “Time for Complete Deblocking” value ([6]; t-butylamine 100 eq.) of the same molecule?
A: 3.5 h

Q: With `C[Si](c1ccccc1)(c1ccccc1)C1(COC(=O)Nc2ccccc2)c2ccccc2-c2ccccc21` [DPMS, 9-Diphenyl(methyl)silyl-9-fluoroenylmethyl Carbanilate] as the molecule, how does the “Time … by Trifluoroacetic Acid” value [4] read?
A: 18 h

Q: What about the “Time … by Fluoride Ion” value [5] of the same molecule?
A: < 2 min

Q: And the “Time for Complete Deblocking” value ([6]; morpholine 100 eq.)?
A: 0.583 h

Q: What about the “Time for Complete Scavenging of Dibenzofulvene” value ([6]; morpholine 100 eq.) of the same molecule?
A: 51 min

Q: What about the “Time for Complete Deblocking” value ([6]; piperidine 100 eq.) of the same molecule?
A: 0.467 h

Q: And the “Time for Complete Scavenging of Dibenzofulvene” value ([6]; piperidine 100 eq.)?
A: 150 min

Q: And the “Time for Complete Deblocking” value ([6]; t-butylamine 100 eq.)?
A: 1.5 h

Q: Which “Time for Complete Deblocking” value ([7]; ethanolamine 50 eq.) does the source give for `CC(C)(C)c1ccc2c(c1)C(COC(=O)Nc1ccc(Cl)cc1)c1cc(C(C)(C)C)ccc1-2` [DT-Fmoc-PCA, 2,7-Di-tert-butyl-9-Fluorenylmethyl p-Chlorocarbanilate] here?
A: 4 h

Q: What about the “Time for Complete Scavenging of Dibenzofulvene Analogs” value (“Time … of Dibenzofulvene Analogs” below) ([7]; morpholine 50 eq.) of the same molecule?
A: 13 hr

Q: And the “Time for Complete Deblocking” value [7, 9]?
A: 10 h

Q: And the “Time … of Dibenzofulvene Analogs” value ([7]; piperidine 50 eq.)?
A: 84 min

Q: And the “Time for Complete Deblocking” value [7, 10]?
A: 0.2 h

Q: And the “Time for Complete Deblocking” value ([7]; t-butylamine 50 eq.)?
A: 10 h

Q: Which “Time … by Trifluoroacetic Acid” value [4] does the source give for `CC(C)(C)c1ccc2c(c1)C(COC(=O)Nc1ccccc1)([Si](C)(C)C)c1cc(C(C)(C)C)ccc1-2` [DT-TMS, 2,7-Di-tert-butyl-9-trimethylsilyl-9-fluorenylmethyl Carbanilate] here?
A: 0.833 h

Q: What about the “Time … by Fluoride Ion” value [5] of the same molecule?
A: 10 min

Q: What about the “Time for Complete Deblocking” value ([6]; morpholine 100 eq.) of the same molecule?
A: 16 h

Q: What about the “Time for Complete Scavenging of Dibenzofulvene” value ([6]; morpholine 100 eq.) of the same molecule?
A: 1020 min

Q: What about the “Time for Complete Deblocking” value ([6]; piperidine 100 eq.) of the same molecule?
A: 13 h

Q: And the “Time for Complete Scavenging of Dibenzofulvene” value ([6]; piperidine 100 eq.)?
A: 1080 min

Q: What about the “Time for Complete Deblocking” value ([6]; t-butylamine 100 eq.) of the same molecule?
A: > 24 h

Q: For `C[Si](C)(C)C1(COC(=O)Nc2ccc(Cl)cc2)c2ccccc2-c2ccccc21` [Example 9-TMS-Fmoc], which “solubility compared with ordinary Fmoc analogs” value ([1]; in non-polar solvents) is on record?
A: enormously more soluble in non-polar solvents than ordinary Fmoc analogs

Q: And the “deblocking by / stability to piperidine” value [2]?
A: deblocked by piperidine, although somewhat more slowly than the Fmoc group itself

Q: Which results are given for `O=C(Nc1ccc(Cl)cc1)OCC1(CC2c3ccccc3-c3ccccc32)c2ccccc2-c2ccccc21` [FM-Fmoc-PCA, 9-(9'-Fluorenylmethyl)-9-fluorenylmethyl p-Chlorocarbanilate]?
A: time at which deblocking had begun ([8]; DBN 50 eq., DMF): ≤ 10 min; Time for Complete Deblocking ([8]; DBN 50 eq., DMF, still not complete): > 24 h; Time for Complete Deblocking ([8]; DBU 50 eq., DMF): 12 h; time at which deblocking had begun ([8]; DBU 50 eq., DMF): ≤ 10 min; start of deblocking ([8]; TBD 20 eq., DMF and pyridine): immediately; time for complete deblocking-scavenging reaction ([8]; TBD 20 eq., DMF and pyridine): 1 h; time at which first deblocking was detected ([8]; piperidine 100 eq., DMF): 12 h

Q: For `O=C(Nc1ccc(Cl)cc1)OCC1c2ccccc2-c2ccccc21` [Fmoc-PCA, 9-fluorenylmethyl p-chlorocarbanilate, reference compound], which “Time for Complete Deblocking” value ([7]; ethanolamine 50 eq.) is on record?
A: 0.75 h

Q: What about the “Time … of Dibenzofulvene Analogs” value ([7]; morpholine 50 eq.) of the same molecule?
A: 2.5 hr

Q: What about the “Time for Complete Deblocking” value [7, 9] of the same molecule?
A: 1.25 h

Q: What about the “Time … of Dibenzofulvene Analogs” value ([7]; piperidine 50 eq.) of the same molecule?
A: 68 min

Q: And the “Time for Complete Deblocking” value [7, 10]?
A: < 0.05 h

Q: What about the “Time for Complete Deblocking” value ([7]; t-butylamine 50 eq.) of the same molecule?
A: 5 h

Q: Which “Time … by Trifluoroacetic Acid” value [4] does the source give for `CC(C)[Si](C(C)C)(C(C)C)C1(COC(=O)Nc2ccccc2)c2ccccc2-c2ccccc21` [TIPS, 9-Triisopropylsilyl-9-fluorenylmethyl Carbanilate] here?
A: 0.567 h

Q: What about the “Time … by Fluoride Ion” value [5] of the same molecule?
A: 1080 min

Q: And the “reaction with amine bases (TLC)” value ([6]; any of the bases tested, 100 eq., 24 hours)?
A: no reaction was detected

Q: Which results are given for `O=C(Nc1ccc(Cl)cc1)OCC1c2ccccc2Oc2ccccc21` [Xmoc-PCA, 9-Xanthenylmethyl p-Chlorocarbanilate]?
A: time needed to complete the deblocking [3]: 3.5 h; Time for Complete Deblocking ([3]; TBD 50 eq., pyridine): 25 min; time for evidence for initiation of the deblocking [3]: 3.5 h

Q: For `O=C(Nc1ccc(Cl)cc1)OCC1c2ccccc2Oc2ccccc21` [Xmoc], which “deblocking by / stability to piperidine” value [2] is on record?
A: stable to piperidine

Q: Which “cleavage by fluoride ion” value ([2]; inorganic base, fluoride ion) does the source give for `CC(C)[Si](C(C)C)(C(C)C)C1(COC(=O)Nc2ccccc2)c2ccccc2-c2ccccc21` [derivative F] here?
A: cleaved by the inorganic base, fluoride ion

Q: What about the “deblocking by / stability to piperidine” value [2] of the same molecule?
A: stable to piperidine
